Publication PMC9516332 (Frontiers in Oncology, 2022)
Read-outs that look alike come from different tables or passages of the source.

Tested on: 134 cancer cell lines
Assay: Cell viability assay (ATPlite, 72 hours), IC50 on cancer cell line panel

## O=C(Nc1cnn2ccc(N3CCC[C@@H]3c3cc(F)ccc3F)nc12)N1CC[C@H](O)C1 [larotrectinib]
Homo sapiens, MDA-MB-468, read-out: IC50 in cell proliferation assay, MDA-MB-468 cell line
  IC50: > 31.6 µM
Homo sapiens, MG-63, read-out: IC50 in cell proliferation assay, MG-63 cell line
  IC50: > 31.6 µM
Homo sapiens, MIA PaCa-2, read-out: IC50 in cell proliferation assay, MIA PaCa-2 cell line
  IC50: > 31.6 µM
Homo sapiens, MKN-45, read-out: IC50 in cell proliferation assay, MKN45 cell line (MET amplification)
  IC50: > 31.6 µM
Homo sapiens, MOLM-13, read-out: IC50 in cell proliferation assay, MOLM-13 cell line (FLT3 ITD)
  IC50: 12.6 µM
Homo sapiens, MOLT-4, read-out: IC50 in cell proliferation assay, MOLT-4 cell line
  IC50: > 31.6 µM
Homo sapiens, MV4-11, read-out: IC50 in cell proliferation assay, MV4-11 cell line (FLT3 ITD)
  IC50: 26.5 µM
Homo sapiens, MeWo, read-out: IC50 in cell proliferation assay, MeWo cell line
  IC50: > 31.6 µM
Homo sapiens, NCCIT, read-out: IC50 in cell proliferation assay, NCC-IT cell line
  IC50: > 31.6 µM
Homo sapiens, NCI-H82, read-out: IC50 in cell proliferation assay, cell line NCI-H82
  IC50: > 31.6 µM
Homo sapiens, NCI-H460, read-out: IC50 in cell proliferation assay, NCI-H460 cell line
  IC50: > 31.6 µM
Homo sapiens, NCI-H661, read-out: IC50 in cell proliferation assay, NCI-H661 cell line
  IC50: > 31.6 µM
Homo sapiens, NCI-H716, read-out: IC50 in cell proliferation assay, cell line NCI-H716 (FGFR2-COL14A1)
  IC50: > 31.6 µM
Homo sapiens, NCI-H1650, read-out: IC50 in cell proliferation assay, NCI-H1650 cell line (EGFR exon19del)
  IC50: > 31.6 µM
Homo sapiens, NCI-H1975, read-out: IC50 in cell proliferation assay, NCI-H1975 cell line (EGFR p.L858R + p.T790M)
  IC50: > 31.6 µM
Homo sapiens, NCI-H2228, read-out: IC50 in cell proliferation assay, NCI-H2228 cell line (EML4-ALK)
  IC50: > 31.6 µM
Homo sapiens, OVCAR-3, read-out: IC50 in cell proliferation assay, cell line OVCAR-3
  IC50: > 31.6 µM
Homo sapiens, PFSK-1, read-out: IC50 in cell proliferation assay, cell line PFSK-1
  IC50: > 31.6 µM
Homo sapiens, RL95-2, read-out: IC50 in cell proliferation assay, cell line RL95-2 (EGFR p.A289V)
  IC50: > 31.6 µM
Homo sapiens, RPMI-7951, read-out: IC50 in cell proliferation assay, cell line RPMI-7951 (BRAF p.V600E)
  IC50: > 31.6 µM
Homo sapiens, RS4-11, read-out: IC50 in cell proliferation assay, cell line RS4;11
  IC50: > 31.6 µM
Homo sapiens, Rec1, read-out: IC50 in cell proliferation assay, cell line REC-1
  IC50: > 31.6 µM
Homo sapiens, SHP77, read-out: IC50 in cell proliferation assay, cell line SHP-77
  IC50: > 31.6 µM
Homo sapiens, SK-BR-3, read-out: IC50 in cell proliferation assay, cell line SK-BR-3 (ERBB2 amplification)
  IC50: > 31.6 µM
Homo sapiens, SK-N-AS, read-out: IC50 in cell proliferation assay, cell line SK-N-AS
  IC50: > 31.6 µM
Homo sapiens, SK-N-FI, read-out: IC50 in cell proliferation assay, cell line SK-N-FI
  IC50: > 31.6 µM
Homo sapiens, SK-N-MC, read-out: IC50 in cell proliferation assay, cell line SK-N-MC
  IC50: > 31.6 µM
Homo sapiens, SK-N-SH, read-out: IC50 in cell proliferation assay, cell line SK-N-SH (ALK p.F1174L)
  IC50: > 31.6 µM
Homo sapiens, SNU-5, read-out: IC50 in cell proliferation assay, cell line SNU-5 (MET amplification)
  IC50: > 31.6 µM
Homo sapiens, SNU-16, read-out: IC50 in cell proliferation assay, cell line SNU-16 (FGFR2 amplification)
  IC50: > 31.6 µM
Homo sapiens, SNU-C2B, read-out: IC50 in cell proliferation assay, cell line SNU-C2B (EGFR p.R165Q)
  IC50: > 31.6 µM
Homo sapiens, SU-DHL-1, read-out: IC50 in cell proliferation assay, cell line SU-DHL-1 (NPM1-ALK)
  IC50: > 31.6 µM
Homo sapiens, SU-DHL-6, read-out: IC50 in cell proliferation assay, cell line SU-DHL-6
  IC50: > 31.6 µM
Homo sapiens, SUP-T1, read-out: IC50 in cell proliferation assay, cell line SUP-T1
  IC50: > 31.6 µM
Homo sapiens, SW48, read-out: IC50 in cell proliferation assay, cell line SW48 (EGFR p.G719S)
  IC50: > 31.6 µM
Homo sapiens, SW480, read-out: IC50 in cell proliferation assay, cell line SW480
  IC50: > 31.6 µM
Homo sapiens, SW626, read-out: IC50 in cell proliferation assay, cell line SW626
  IC50: > 31.6 µM
Homo sapiens, SW780, read-out: IC50 in cell proliferation assay, cell line SW780 (FGFR3-BAIAP2L1)
  IC50: > 31.6 µM
Homo sapiens, SW837, read-out: IC50 in cell proliferation assay, cell line SW837
  IC50: > 31.6 µM
Homo sapiens, SW872, read-out: IC50 in cell proliferation assay, cell line SW872 (BRAF p.V600E)
  IC50: > 31.6 µM
Homo sapiens, SW900, read-out: IC50 in cell proliferation assay, cell line SW900
  IC50: > 31.6 µM
Homo sapiens, SW948, read-out: IC50 in cell proliferation assay, cell line SW948
  IC50: > 31.6 µM
Homo sapiens, SW982, read-out: IC50 in cell proliferation assay, cell line SW982 (BRAF p.V600E)
  IC50: > 31.6 µM
Homo sapiens, SW-620, read-out: IC50 in cell proliferation assay, cell line SW620
  IC50: > 31.6 µM
Homo sapiens, T98G, read-out: IC50 in cell proliferation assay, cell line T98G
  IC50: > 31.6 µM
Homo sapiens, TCC-SUP, read-out: IC50 in cell proliferation assay, cell line TCCSUP
  IC50: > 31.6 µM
Homo sapiens, THP-1, read-out: IC50 in cell proliferation assay, cell line THP-1
  IC50: > 31.6 µM
Homo sapiens, U2OS, read-out: IC50 in cell proliferation assay, cell line U2OS
  IC50: > 31.6 µM
Homo sapiens, U-87 MG, read-out: IC50 in cell proliferation assay, cell line U-87MG ATCC
  IC50: > 31.6 µM
Homo sapiens, U-118-MG, read-out: IC50 in cell proliferation assay, cell line U-118MG
  IC50: > 31.6 µM
Homo sapiens, UMUC3, read-out: IC50 in cell proliferation assay, cell line UM-UC-3
  IC50: > 31.6 µM
Hs766T, read-out: IC50 in cell proliferation assay, Hs 766T cell line
  IC50: > 31.6 µM
L-82, read-out: IC50 in cell proliferation assay, L-82 cell line (NPM1-ALK)
  IC50: > 31.6 µM
Rh30, read-out: IC50 in cell proliferation assay, cell line Rh30
  IC50: > 31.6 µM
read-out: IC50 in cell proliferation assay, 11-18 cell line (EGFR p.L858R)
  IC50: > 31.6 µM
read-out: IC50 in cell proliferation assay, Hs 852.T cell line
  IC50: > 31.6 µM
read-out: IC50 in cell proliferation assay, JAR cell line
  IC50: > 31.6 µM
read-out: IC50 in cell proliferation assay, cell line 5637
  IC50: > 31.6 µM
read-out: IC50 in cell proliferation assay, cell line A-388
  IC50: > 31.6 µM
read-out: IC50 in cell proliferation assay, cell line DB
  IC50: > 31.6 µM
read-out: IC50 in cell proliferation assay, cell line DEL (NPM1-ALK)
  IC50: > 31.6 µM
read-out: IC50 in cell proliferation assay, cell line ES-2 (BRAF p.V600E)
  IC50: > 31.6 µM
read-out: IC50 in cell proliferation assay, cell line PA-1
  IC50: > 31.6 µM
read-out: IC50 in cell proliferation assay, cell line PC-3
  IC50: > 31.6 µM
read-out: IC50 in cell proliferation assay, cell line RD
  IC50: > 31.6 µM
read-out: IC50 in cell proliferation assay, cell line RKO (BRAF p.V600E)
  IC50: > 31.6 µM
read-out: IC50 in cell proliferation assay, cell line RL
  IC50: > 31.6 µM
read-out: IC50 in cell proliferation assay, cell line RT-4 (FGFR3-TACC3)
  IC50: > 31.6 µM
read-out: IC50 in cell proliferation assay, cell line SR (NPM1-ALK)
  IC50: > 31.6 µM
read-out: IC50 in cell proliferation assay, cell line T24
  IC50: > 31.6 µM
read-out: IC50 in cell proliferation assay, cell line TT (RET p.C634W)
  IC50: > 31.6 µM
read-out: IC50 in cell proliferation assay, cell line VA-ES-BJ
  IC50: > 31.6 µM
